Each block holds one molecule with its values, some of them ahead of it.
Assays:
[1] = target: RAC-alpha serine/threonine-protein kinase (Homo sapiens) (UniProt P31749); assay: Inhibition of AKT1 (unknown origin) at 0.078 uM relative to control
[2] = target: Protein kinase C epsilon type (Homo sapiens) (UniProt Q02156); assay: Inhibition of PKC-epsilon (unknown origin) at 0.49 uM relative to control
[3] = target: Cyclin-dependent kinase 1/cyclin B1 (Homo sapiens) (UniProt P06493+P14635); assay: Inhibition of CDK1/Cycline B1 (unknown origin) at 0.49 uM relative to control; assay type: protein-complex assay
[4] = target: Dual specificity tyrosine-phosphorylation-regulated kinase 3 (Homo sapiens) (UniProt O43781); assay: Inhibition of DYRK3 (unknown origin) at 0.49 uM relative to control
[5] = target: Mitogen-activated protein kinase 13 (Homo sapiens) (UniProt O15264); assay: Inhibition of p38-delta (unknown origin) at 0.49 uM relative to control
[6] = system: Fibroblast growth factor receptor 4 (Homo sapiens), P22455 [V550L]; assay: Inhibition of FGFR4 V550L mutant (unknown origin) at 0.49 uM relative to control
[7] = system: Receptor-type tyrosine-protein kinase FLT3 (Homo sapiens), P36888 [D835Y]; assay: Inhibition of Flt3 D835Y mutant (unknown origin) at 0.49 uM relative to control
[8] = target: Vascular endothelial growth factor receptor 3 (Homo sapiens) (UniProt P35916); assay: Inhibition of FLT4 (unknown origin) at 0.49 uM relative to control
[9] = target: Serine/threonine-protein kinase DCLK2 (Homo sapiens) (UniProt Q8N568); assay: Inhibition of DCAMKL2 (unknown origin) at 0.49 uM relative to control
[10] = target: Maternal embryonic leucine zipper kinase (Homo sapiens) (UniProt Q14680); assay: Inhibition of MELK (unknown origin) at 0.49 uM relative to control
[11] = target: MAP kinase-interacting serine/threonine-protein kinase 1 (Homo sapiens) (UniProt Q9BUB5); assay: Inhibition of MNK1 (unknown origin) at 0.49 uM relative to control
[12] = target: PAS domain-containing serine/threonine-protein kinase (Homo sapiens) (UniProt Q96RG2); assay: Inhibition of PASK (unknown origin) at 0.49 uM relative to control
[13] = target: Serine/threonine-protein kinase pim-1 (Homo sapiens) (UniProt P11309); assay: Inhibition of PIM1 (unknown origin) at 0.49 uM relative to control
[14] = system: Epidermal growth factor receptor (Homo sapiens), P00533 [T790M]; assay: Inhibition of EGFR T790M mutant (unknown origin) at 0.49 uM relative to control
[15] = target: Tyrosine-protein kinase TXK (Homo sapiens) (UniProt P42681); assay: Inhibition of TXK (unknown origin) at 0.49 uM relative to control
[16] = target: Serine/threonine-protein kinase D1 (Homo sapiens) (UniProt Q15139); assay: Inhibition of PKD1 (unknown origin) at 0.49 uM relative to control
[17] = target: Protein kinase C alpha type (Homo sapiens) (UniProt P17252); assay: Inhibition of PKC-alpha (unknown origin) at 0.49 uM relative to control
[18] = target: RAC-gamma serine/threonine-protein kinase (Homo sapiens) (UniProt Q9Y243); assay: Inhibition of AKT3 (unknown origin) at 0.45 uM relative to control
Homo sapiens = species on record: Homo sapiens; assay: Inhibition of p70S6K (unknown origin) at 0.45 uM relative to control
[19] = target: Protein kinase C gamma type (Homo sapiens) (UniProt P05129); assay: Inhibition of PKC-gamma (unknown origin) at 0.45 uM relative to control
[20] = target: Casein kinase I isoform epsilon (Homo sapiens) (UniProt P49674); assay: Inhibition of CK1-epsilon (unknown origin) at 0.45 uM relative to control
[21] = target: Casein kinase I isoform gamma-1 (Homo sapiens) (UniProt Q9HCP0); assay: Inhibition of CK1-gamma1 (unknown origin) at 0.45 uM relative to control
[22] = target: Cyclin-dependent kinase 5/CDK5 activator 1 (Homo sapiens) (UniProt Q00535+Q15078); assay: Inhibition of CDK5/p25 (unknown origin) at 0.45 uM relative to control; assay type: protein-complex assay
[23] = target: CDK6/cyclin D3 (Homo sapiens) (UniProt P30281+Q00534); assay: Inhibition of CDK6/CyclinD3 (unknown origin) at 0.45 uM relative to control; assay type: protein-complex assay
[24] = target: Ephrin type-A receptor 3 (Homo sapiens) (UniProt P29320); assay: Inhibition of EPHA3 (unknown origin) at 0.45 uM relative to control
[25] = target: Fibroblast growth factor receptor 1 (Homo sapiens) (UniProt P11362); assay: Inhibition of FGFR1 (unknown origin) at 0.45 uM relative to control
[26] = system: Fibroblast growth factor receptor 2 (Homo sapiens), P21802 [N549H]; assay: Inhibition of FGFR2 N549H mutant (unknown origin) at 0.45 uM
[27] = target: Mitogen-activated protein kinase 3 (Homo sapiens) (UniProt P27361); assay: Inhibition of Erk1 (unknown origin) at 0.45 uM relative to control
[28] = target: SRSF protein kinase 3 (Homo sapiens) (UniProt Q9UPE1); assay: Inhibition of MSSK1 (unknown origin) at 0.45 uM relative to control
[29] = target: Tyrosine-protein kinase Lck (Homo sapiens) (UniProt P06239); assay: Inhibition of LCK (unknown origin) at 0.45 uM relative to control
[30] = target: Phosphorylase b kinase gamma catalytic chain, skeletal muscle/heart isoform (Homo sapiens) (UniProt Q16816); assay: Inhibition of PhKg1 (unknown origin) at 0.45 uM relative to control
[31] = target: Serine/threonine-protein kinase pim-1 (Homo sapiens) (UniProt P11309); assay: Inhibition of PIM1 (unknown origin) at 0.45 uM relative to control
[32] = system: Tyrosine-protein kinase ABL1 (Homo sapiens), P00519 [Y253F]; assay: Inhibition of ABL1 Y253F mutant (unknown origin) at 0.45 uM relative to control
[33] = target: Tyrosine-protein kinase BTK (Homo sapiens) (UniProt Q06187); assay: Inhibition of BTK (unknown origin) at 0.45 uM relative to control
[34] = target: Proto-oncogene tyrosine-protein kinase Src (Homo sapiens) (UniProt P12931); assay: Inhibition of SRC (unknown origin) at 0.45 uM relative to control
[35] = target: Tyrosine-protein kinase Tec (Homo sapiens) (UniProt P42680); assay: Inhibition of TEC (unknown origin) at 0.45 uM relative to control
[36] = target: Interleukin-1 receptor-associated kinase 1 (Homo sapiens) (UniProt P51617); assay: Inhibition of IRAK1 (unknown origin) at 0.45 uM relative to control
[37] = target: Protein kinase C beta (Homo sapiens) (UniProt P05771); assay: Inhibition of PKC-beta1 (unknown origin) at 0.45 uM relative to control

inhibition [1]: -1%
SMILES: COC(=O)Nc1noc2cc(-c3c(-c4ccccn4)n[nH]c3C)ccc12

inhibition [2]: 4.7%
inhibition [3]: 20%
inhibition [4]: 1%
inhibition [5]: 4.3%
inhibition [6]: 4%
inhibition [7]: 15.3%
inhibition [8]: -2.7%
inhibition [9]: 2%
inhibition [10]: 4%
inhibition [11]: 3%
inhibition [12]: 1.3%
inhibition [13]: 9%
inhibition [14]: 0.7%
inhibition [15]: -0.3%
inhibition [16]: 1.7%
inhibition [17]: 2%
SMILES: Cc1[nH]nc(C2CC2)c1-c1ccc2c(NC(=O)C3CC3)noc2c1

inhibition [18]: 1.3%
inhibition (Homo sapiens): 1.3%
inhibition [19]: 18.7%
inhibition [20]: 2.7%
inhibition [21]: 5%
inhibition [22]: 0.3%
inhibition [23]: 5.3%
inhibition [24]: 5%
inhibition [25]: 35%
inhibition [26]: 40%
inhibition [27]: 1.3%
inhibition [28]: 2%
inhibition [29]: 32.3%
inhibition [30]: 0.7%
inhibition [31]: 4%
inhibition [32]: 76%
inhibition [33]: 5%
inhibition [34]: 51.7%
inhibition [35]: 7%
inhibition [36]: 4.3%
inhibition [37]: 7.7%
SMILES: Cc1n[nH]c(C)c1-c1ccc2c(NC(=O)c3ccc(N4CCN(C)CC4)cc3)n[nH]c2c1
